{
  "source": "patent US8921362B2",
  "about": "“6,7-dialkoxy quinazoline derivatives and methods of treating drug resistant and other tumors” (Natco Pharma Limited, priority 2008, dated 2014)",
  "key": {"[1]": {"experiment": "30 day repeated dose study", "conditions": "both sexes, dog, in vivo, po, beagle dogs, orally by capsule, read-out: no observed adverse effect level (NOAEL)", "experimental": "The methods followed were as per CPMP/SWP/1042/99 (July 2000) and ICH S3A (March (1995)) guidelines. Prior to the 30 day repeated dose study, a dose range finding study was conducted, which included single dose MTD study followed by a 10 day repeated dose study. For the single dose MTD study, two dogs (1 male and 1 female) of beagle breed, obtained from Marshall's Farm, China, were used. The route of dosing was oral, by gelatin capsule. Based on the results of the dose range finding study, doses for the 30 days study were selected.\nThe 30 day repeated dose study employed 12 male and 12 female dogs (Marshall's Farm, China). The dogs were acclimatized for a minimum period of 2 weeks and randomly divided into four main groups (G1-G4), each group comprising of 3 dogs per sex. […]\n(§1) The study also tracked body weight (weekly), food consumption (daily), opthalmological status (start and end), hematological and biochemical analyses (start and end), toxicokinetics analysis of plasma (start and end). At the end of the study, all dogs were euthanized by a humane and accepted procedure, subjected to a gross post-mortem examination, organ weights (absolute and relative) were determined, and histopathological examination was carried out."}, "[2]": {"experiment": "Acute toxicity (LD0, LD50)", "assay_type": "in vivo", "conditions": "po, mice, single dose", "experimental": "[…]. The doses 500, 750, 1000 and 2000 mg/Kg were administered orally. Each group included 5 mice. […] The survived animals were autopsied for asserting the absorption of compound through g.i.t. The LD50 was determined according to the method described in Litchfield and Wilcoxon (J. Pharmacol. Exp. Ther. 1949, 96:99-113)."}, "[3]": {"tested_on": "A549 luciferase expressing cells", "experiment": "Nude mice implanted with A549 luciferase expressing cells", "assay_type": "in vivo", "conditions": "oral and ip routes, FIGS. 6 & 7"}, "H1299 and A549 cells": {"tested_on": "H1299 and A549 cells", "experiment": "Matrigel invasion assay", "assay_type": "cell-based, human", "conditions": "48 hr treatment, FIG. 2", "experimental": "The in vitro invasiveness of H1299 and A549 cells in the presence of various concentrations of NRC compounds (as determined by MTT assay) was assessed using a modified Boyden chamber assay. Cells were treated with these compounds for 48 hr. 1×10^6 cells were suspended in 600 μl of serum-free medium supplemented with 0.2% BSA and placed in the upper compartment of the transwell chambers (Corning Costar Fisher Scientific cat #07-200-158, Pittsburgh Pa.) coated with matrigel (0.7 mg/ml). The lower compartment of the chamber was filled with 200 μl of serum medium and the cells were allowed to migrate for 24 hr. After incubation, the cells were fixed and stained with Hema-3 and quantified as previously described (Mohanam et al. 1993). The migrated cells were quantified as percent invasion."}, "[4]": {"conditions": "po, Swiss Albino mice, suspended in 2% gum acacia"}, "ERBB2": {"molecular_target": "ERBB2 (Homo sapiens, UniProt P04626)", "sequence (P04626 23-1255)": "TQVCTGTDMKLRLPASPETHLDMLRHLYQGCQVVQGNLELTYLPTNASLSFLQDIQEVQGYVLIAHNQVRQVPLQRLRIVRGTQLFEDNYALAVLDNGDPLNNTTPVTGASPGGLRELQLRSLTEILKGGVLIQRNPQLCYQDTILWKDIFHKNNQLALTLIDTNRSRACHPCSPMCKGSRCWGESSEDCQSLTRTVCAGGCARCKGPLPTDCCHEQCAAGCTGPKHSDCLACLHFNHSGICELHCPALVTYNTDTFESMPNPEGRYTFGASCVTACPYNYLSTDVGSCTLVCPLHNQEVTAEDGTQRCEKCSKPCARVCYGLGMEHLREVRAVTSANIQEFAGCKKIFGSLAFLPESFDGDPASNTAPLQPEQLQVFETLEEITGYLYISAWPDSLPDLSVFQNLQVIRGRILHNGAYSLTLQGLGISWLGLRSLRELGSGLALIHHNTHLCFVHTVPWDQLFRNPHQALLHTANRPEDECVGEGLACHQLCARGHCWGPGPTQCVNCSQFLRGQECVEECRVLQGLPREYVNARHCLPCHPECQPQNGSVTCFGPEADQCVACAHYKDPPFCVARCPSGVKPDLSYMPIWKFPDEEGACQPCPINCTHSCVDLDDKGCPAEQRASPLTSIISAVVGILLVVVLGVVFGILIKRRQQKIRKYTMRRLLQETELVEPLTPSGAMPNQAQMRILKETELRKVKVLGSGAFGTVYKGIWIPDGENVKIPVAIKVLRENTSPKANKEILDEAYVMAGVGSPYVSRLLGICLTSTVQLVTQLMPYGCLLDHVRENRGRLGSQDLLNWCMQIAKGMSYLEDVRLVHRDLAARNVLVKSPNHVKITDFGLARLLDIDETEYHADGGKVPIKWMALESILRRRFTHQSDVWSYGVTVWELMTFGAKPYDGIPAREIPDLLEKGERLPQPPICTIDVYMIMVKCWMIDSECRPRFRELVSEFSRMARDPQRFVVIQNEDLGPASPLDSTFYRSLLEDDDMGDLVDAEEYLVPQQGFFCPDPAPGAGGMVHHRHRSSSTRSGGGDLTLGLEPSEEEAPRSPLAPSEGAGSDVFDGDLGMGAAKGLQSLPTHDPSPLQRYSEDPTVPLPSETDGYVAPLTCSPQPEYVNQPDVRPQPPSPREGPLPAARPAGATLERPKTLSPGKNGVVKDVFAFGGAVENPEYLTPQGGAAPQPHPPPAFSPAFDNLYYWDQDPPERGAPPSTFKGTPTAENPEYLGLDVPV", "experiment": "Down regulation of receptors, western blot in A549 cells", "assay_type": "cell-based", "design": "endogenous in cells; host or cells: A549", "conditions": "FIG. 8", "experimental": "(§2) Levels of Erb-1, Erb-2, Erb-3, Erb-4 and VEGFR were determined by western blot analysis."}, "ERBB4": {"molecular_target": "ERBB4 (Homo sapiens, UniProt Q15303)", "sequence (Q15303 26-1308)": "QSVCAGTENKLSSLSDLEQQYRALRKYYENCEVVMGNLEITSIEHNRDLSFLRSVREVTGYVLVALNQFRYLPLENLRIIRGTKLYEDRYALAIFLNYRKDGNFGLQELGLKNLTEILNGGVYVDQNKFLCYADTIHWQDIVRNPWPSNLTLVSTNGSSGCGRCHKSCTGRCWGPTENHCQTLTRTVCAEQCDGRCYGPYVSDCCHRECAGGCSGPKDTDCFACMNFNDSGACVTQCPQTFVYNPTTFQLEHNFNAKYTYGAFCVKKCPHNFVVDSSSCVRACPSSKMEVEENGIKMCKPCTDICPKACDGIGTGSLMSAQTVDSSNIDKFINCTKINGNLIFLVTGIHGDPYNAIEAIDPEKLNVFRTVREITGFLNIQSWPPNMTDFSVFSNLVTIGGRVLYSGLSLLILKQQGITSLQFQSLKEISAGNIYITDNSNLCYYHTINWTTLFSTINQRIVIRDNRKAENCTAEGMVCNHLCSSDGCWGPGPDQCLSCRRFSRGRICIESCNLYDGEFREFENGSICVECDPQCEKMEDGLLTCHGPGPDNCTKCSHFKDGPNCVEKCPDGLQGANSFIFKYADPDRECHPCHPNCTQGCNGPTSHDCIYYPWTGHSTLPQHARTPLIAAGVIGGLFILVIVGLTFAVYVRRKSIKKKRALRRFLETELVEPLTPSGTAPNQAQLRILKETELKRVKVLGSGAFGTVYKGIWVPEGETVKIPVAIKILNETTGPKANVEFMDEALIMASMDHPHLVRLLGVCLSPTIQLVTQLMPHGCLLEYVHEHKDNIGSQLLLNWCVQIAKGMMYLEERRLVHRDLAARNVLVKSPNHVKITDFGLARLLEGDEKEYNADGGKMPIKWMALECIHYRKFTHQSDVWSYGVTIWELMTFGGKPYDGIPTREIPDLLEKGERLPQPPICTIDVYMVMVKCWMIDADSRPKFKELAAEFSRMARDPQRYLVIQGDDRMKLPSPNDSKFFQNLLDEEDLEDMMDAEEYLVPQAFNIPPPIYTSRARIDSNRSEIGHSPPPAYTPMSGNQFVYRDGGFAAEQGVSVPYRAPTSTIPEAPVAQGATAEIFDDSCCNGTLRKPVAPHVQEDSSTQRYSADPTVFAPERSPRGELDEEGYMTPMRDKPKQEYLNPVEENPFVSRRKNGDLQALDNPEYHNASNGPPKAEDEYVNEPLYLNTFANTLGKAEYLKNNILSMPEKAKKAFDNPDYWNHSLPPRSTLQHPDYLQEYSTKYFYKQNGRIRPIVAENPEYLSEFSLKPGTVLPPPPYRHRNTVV", "experiment": "Down regulation of receptors, western blot in A549 cells", "assay_type": "cell-based", "design": "endogenous in cells; host or cells: A549", "conditions": "FIG. 8", "experimental": "as §2"}, "[5]": {"tested_on": "A549 luciferase expressing cells", "experiment": "Lung tissue harvested from nude mice after treatment", "assay_type": "in vivo", "conditions": "oral/ip routes, various concentrations, FIG. 4"}, "A549 human lung tumors": {"tested_on": "A549 human lung tumors", "experiment": "Subcutaneous lung tumors in nude mice", "assay_type": "in vivo", "conditions": "100 mg/Kg dose", "source_text": "Nude mice were implanted with 2×10^6 A549 cells in the right hind limb flank."}, "[6]": {"experiment": "Acute oral gavage toxicity (MTD)", "protocol": "(§3) 20 male and 20 female Swiss albino mice were randomly divided into four groups (G1-G4). Each group was 5 male and 5 female Swiss albino mice. […] G1 was treated with placebo and served as a control. […] The mid dose group animals (G3-treated with 500 mg/kg b.wt) were administered the dose formulation twice with a gap of approximately 1 hour. Animals from high dose group (G4-treated with 1000 mg/kg b.wt) received the dose formulation four times with a gap of approximately one hour."}, "VEGFR": {"tested_on": "VEGFR", "experiment": "Down regulation of receptors, western blot in A549 cells", "assay_type": "cell-based, human", "conditions": "FIG. 8", "experimental": "as §2"}, "in vivo [7]": {"experiment": "in vivo", "conditions": "both, Swiss albino, mouse, po"}, "in vivo [8]": {"experiment": "in vivo", "conditions": "both, Swiss albino, mouse, po", "remark": "listed apart in the source", "protocol": "as §3"}, "[9]": {"experiment": "Toxicokinetics in 30 day repeated dose study", "assay_type": "in vivo, beagle dogs", "conditions": "for Tmax: beagle, dog, plasma, po, read-out: median Tmax", "experimental": "The 30 day repeated dose study employed 12 male and 12 female dogs (Marshall's Farm, China). The dogs were acclimatized for a minimum period of 2 weeks and randomly divided into four main groups (G1-G4), each group comprising of 3 dogs per sex. The animals were dosed orally with capsules of NRC-2694A for a period of 30 consecutive days at dose levels of 10 mg/kg b.wt/day (G2-low dose), 20 mg/kg b.wt/day (G3-mid dose) and 40 mg/kg b. wt/day (G4-high dose). […] The control group (G1-0 mg/kg b. wt/day) animals were dosed by oral capsule with placebo.\nas §1\nThe toxicokinetic parameters viz."}, "[10]": {"tested_on": "Salmonella typhimurium (TA 98, TA 100, TA 102, TA 1535 and TA 1537)", "experiment": "Ames bacterial reverse mutation assay", "assay_type": "cell-based", "conditions": "0.0125-1.2500 mg/plate, with and without S9", "experimental": "The present study was conducted by the direct plate incorporation method with five tester strains of Salmonella typhimurium (TA 98, TA 100, TA 102, TA 1535 and TA 1537). […] Simultaneously, negative control cultures received DMSO and the respective positive controls received the mutagens 2-Amino anthracene, 2-Nitrofluorene, Sodium azide, 9-Aminoacridine and Mitomycin C (Sigma, St. Louis). In order to study the role of metabolic activation, cultures were incubated both with and without S9 mixture. The induction of Histidine positive colonies was computed and results were statistically treated for comparison."}, "[11]": {"experiment": "Functional observational battery (FOB)", "assay_type": "in vivo, Wistar rats", "conditions": "75, 125 and 250 mg/kg b.wt single oral dose, 60-120 min post treatment", "experimental": "The study was conducted in accordance with “[…] Safety Pharmacology Studies for Human Pharmaceuticals, ICH” July 2001, and as per this study protocol. […] Rats that had been fasted for 16 to 18 hours (access to water was not interrupted) were dosed with the compound or water. The rats were administered the compound in an aqueous formulation at three levels, 75, 125 and 250 mg/kg b.wt, as a single oral dose by gavage. The control group received water. The rats were subjected to the FOB 60-120 min. after drug administration.\nAnimals were subjected to the FOB one at a time except for the multiple activity cage where four animals were placed in four different cages simultaneously. Once complete, the animals were returned to their home cage and the cage placed back on the stand."}, "[12]": {"experiment": "Acute oral gavage toxicity (MTD)", "conditions": "G4, 1000 mg/kg body wt., rats"}, "[13]": {"experiment": "Respiratory function, whole body plethysmograph", "assay_type": "in vivo, Wistar rats", "conditions": "75, 125 and 250 mg/kg body weight, oral, 3 hours", "experimental": "This study evaluated the effect of NRC-2694A monohydrochloride on respiratory function in conscious Wistar rats following administration of a single dose using a whole body plethysmograph. The study was conducted in accordance with “S7A Safety Pharmacology Studies for Human Pharmaceuticals, ICH” issued July 2001. The study used a parallel design with one vehicle and three test item treated groups. […] Male Wistar rats were placed in plethysmography chambers and baseline respiratory parameters were recorded for 30 minutes. Following drug administration respiratory parameters were recorded continuously for 3 hours."}, "[14]": {"experiment": "Cardiovascular parameters in telemetered dogs", "assay_type": "in vivo", "conditions": "male Beagle dogs", "experimental": "The study was conducted in accordance with ICH “S7A Safety Pharmacology Studies for Human Pharmaceuticals, Note for Guidance on Safety Pharmacology Studies for Human Pharmaceuticals, July 2001”. The doses tested were 0, 15, 30 and 60 mg/kg b.wt. given orally by gelatin capsule. Four male Beagle dogs, each implanted with a TL1IM2-D70-PCT transmitter (Data Sciences International, USA), were used for the study. During the study, the dogs were administered 4 oral treatments representing placebo and all test substance treatment groups with a three day (˜72 hour) wash-out period between each administration, using a Latin square cross-over design.\nOn dosing days, the telemetered dogs were observed once before commencement of data collection, continuously through 2 hours post-dose remotely and ˜8 hours post-dose for changes in behaviour. Cardiovascular parameters (systolic, diastolic and mean blood pressure, pulse pressure and heart rate) were recorded continuously for ˜60 minutes before dosing and up to 24 hours after dosing. Systolic, diastolic and mean blood pressures, pulse pressure and heart rate were obtained from the femoral artery waveform. Electrocardiograms were recorded continuously for ˜60 minutes before dosing and up to 24 hours after dosing. […] Heart rate and QT intervals were determined from the ECG's."}},
  "note": "Counter-ions that a name gives are not always drawn. Like-named read-outs stand apart in the source and are kept apart here.",
  "data": [
    {"compound": "C#Cc1cccc(Nc2ncnc3cc(OCCOC)c(OCCOC)cc23)c1", "note": "[Erlotinib HCl, N-(3-Ethylnylphenyl)-6,7-bis(2-methoxyethoxy)-4-quinazolinamine]", "values": [
      {"measurement": "NOAEL at 30 days", "setting": "[1]", "result": 5, "unit": "mg/kg/day"},
      {"measurement": "LD50 at 14 days", "setting": "[2]; both sexes, mouse, in vivo", "result": 805, "unit": "mg/kg"},
      {"measurement": "LD0", "setting": "[2]; no mortality at end of 7 days", "result": 500, "unit": "mg/kg"},
      {"measurement": "tumors at the end of 42 days treatment", "setting": "[3]", "result": "residual tumors were still present"},
      {"measurement": "invasion", "setting": "H1299 and A549 cells", "result": "dose dependent decrease in invasion"},
      {"measurement": "MTD", "setting": "[4]", "result": 500, "unit": "mg/kg"},
      {"measurement": "Erb B2 levels", "setting": "ERBB2", "result": "no such indication was seen"},
      {"measurement": "Erb B4 levels", "setting": "ERBB4", "result": "no such indication was seen"},
      {"measurement": "residual tumors in harvested lungs", "setting": "[5]", "result": "tumors were still present"},
      {"measurement": "tumor regression", "setting": "A549 human lung tumors", "result": "tumors were still present"},
      {"measurement": "MTD at 14 days", "setting": "[6]; both, Swiss albino, mouse, in vivo, po", "result": 500, "unit": "mg/kg"},
      {"measurement": "VEGFR levels", "setting": "VEGFR", "result": "no such indication was seen"},
      {"measurement": "IC50", "setting": "A549 and H1299 cells", "result": 836, "unit": "ng/mL"},
      {"measurement": "MTD at 72 h", "setting": "in vivo [7]", "result": 500, "unit": "mg/kg"}
    ]},
    {"compound": "C#Cc1cccc(Nc2ncnc3cc(OC)c(OCCCN4CCOCC4)cc23)c1.Cl", "note": "[NRC-2694 monohydrochloride, N-(3-ethynylphenyl)-7-methoxy-6-[3-(4-morpholinyl)propoxy]-4-quinazolinamine mono hydrochloride]", "values": [
      {"measurement": "MTD at 14 days", "setting": "in vivo [8]", "result": 1000, "unit": "mg/kg"},
      {"measurement": "NOAEL at 30 days", "setting": "[1]", "result": 10, "unit": "mg/kg/day"},
      {"measurement": "Tmax", "setting": "[9]; day 1, female, 10 mg/kg", "result": 2, "unit": "h"},
      {"measurement": "Tmax", "setting": "[9]; day 1, female, 40 mg/kg", "result": 4, "unit": "h"},
      {"measurement": "Tmax", "setting": "[9]; day 1, male, 10 mg/kg", "result": 2, "unit": "h"},
      {"measurement": "Tmax", "setting": "[9]; day 1, male, 20 mg/kg", "result": 3, "unit": "h"},
      {"measurement": "Tmax", "setting": "[9]; day 1, male, 40 mg/kg", "result": 2, "unit": "h"},
      {"measurement": "Tmax", "setting": "[9]; day 30, female, 20 mg/kg", "result": 4, "unit": "h"},
      {"measurement": "Cmax", "setting": "[9]; three dose levels, male and female dogs", "result": "dose-dependent change in the Cmax"},
      {"measurement": "mutagenicity (His revertant colonies)", "setting": "[10]", "result": "non-mutagenic"},
      {"measurement": "toxic signs or mortality", "setting": "[6]; 250 mg/kg and 500 mg/kg, oral gavage, mice", "result": "did not produce any toxic signs or mortality"},
      {"measurement": "functional observational battery", "setting": "[11]", "result": "did not show any adverse effects at the tested doses"},
      {"measurement": "chromodacryoorhea (animals affected)", "setting": "[12]", "result": "10/10"},
      {"measurement": "mild to severe lethargy (animals affected)", "setting": "[12]", "result": "10/10"},
      {"measurement": "piloerection (animals affected)", "setting": "[12]", "result": "10/10"},
      {"measurement": "ptosis (animals affected)", "setting": "[12]", "result": "4/10"},
      {"measurement": "weakness (animals affected)", "setting": "[12]", "result": "1/10"},
      {"measurement": "respiratory rate, tidal volume, minute volume, and Penh", "setting": "[13]", "result": "did not influence any of the observed parameters"},
      {"measurement": "cardiovascular parameters (blood pressure, pulse pressure, heart rate, QT, QTcf)", "setting": "[14]; 15, 30 and 60 mg/kg b.wt. oral", "result": "no significant negative effects on cardiovascular parameters"},
      {"measurement": "no observed effect level", "setting": "[14]; cardiovascular parameters, oral", "result": 60, "unit": "mg/kg b.wt."}
    ]}
  ]
}
